Patent US20040209891A1, “Treatment of type 2 diabetes with inhibitors of dipeptidyl peptidase IV” (priority 2001, published 2004)
Where a name gives a salt, the structure may show the parent alone.

Legend:
[1] = biological target: Human DP-IV (Homo sapiens, UniProt P27487); type: biochemical; conditions: substrate Ala-Pro-AFC, fluorescence
Experimental: The in vitro inhibitory action of the compounds is determined in a fluorimetric assay. Human DP-IV is incubated with a standard substrate, Ala-Pro-AFC, in the presence of various concentrations of the inhibitor. The reaction is monitored by measuring the increase in fluorescence due to the reaction product, AFC. Using standard manipulations, an inhibitory constant, Ki, is determined.

[2] = test system: ZDF rat; test: Effect of long-term inhibition of DP-IV in ZDF rat (four weeks dosing); type: in vivo; conditions: male ZDF rats; for Glycaemia: day of development of significant hyperglycaemia: obese control hyperglycaemic at day 8
From the text: Control animals are given vehicle. A group of untreated lean rats is used as a comparison. Glycaemia, insulinaemia, body weight, food and water intake, and plasma triglyceride and free fatty acid levels are monitored throughout the study.

Human DP-IV, sequence (P27487 whole entry): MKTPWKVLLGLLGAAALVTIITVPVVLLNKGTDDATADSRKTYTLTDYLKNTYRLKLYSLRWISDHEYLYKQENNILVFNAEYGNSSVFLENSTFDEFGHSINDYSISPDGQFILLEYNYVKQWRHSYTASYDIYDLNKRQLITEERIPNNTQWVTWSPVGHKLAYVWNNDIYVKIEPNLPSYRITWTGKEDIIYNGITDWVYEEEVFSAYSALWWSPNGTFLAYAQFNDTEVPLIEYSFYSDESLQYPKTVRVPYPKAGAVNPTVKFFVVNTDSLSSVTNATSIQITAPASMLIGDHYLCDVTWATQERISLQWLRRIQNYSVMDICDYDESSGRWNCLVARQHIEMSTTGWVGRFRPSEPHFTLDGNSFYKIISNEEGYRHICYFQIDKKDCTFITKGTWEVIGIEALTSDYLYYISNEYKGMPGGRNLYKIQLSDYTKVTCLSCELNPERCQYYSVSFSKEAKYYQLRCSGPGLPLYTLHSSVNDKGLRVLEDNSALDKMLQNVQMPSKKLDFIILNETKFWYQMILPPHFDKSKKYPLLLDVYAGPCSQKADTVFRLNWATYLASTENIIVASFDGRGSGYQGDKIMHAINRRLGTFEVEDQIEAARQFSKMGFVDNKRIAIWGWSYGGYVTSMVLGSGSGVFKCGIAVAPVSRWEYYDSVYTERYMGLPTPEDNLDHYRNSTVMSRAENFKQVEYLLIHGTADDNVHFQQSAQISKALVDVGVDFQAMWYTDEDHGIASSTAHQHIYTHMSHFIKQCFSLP

Work on `N#C[C@@H]1CCCN1C(=O)[C@@H](N)CCCNC(=O)c1cnccn1` [Example 1B, (2S)-1-((2′S)-2′-amino-5′-pyrazinecarbonylaminopentanoyl)pyrrolidine-2-carbonitrile trifluoroacetate] yielded a Ki [1] of 0.4 nM.

`CC(C)(C)[C@H](N)C(=O)N1CCC[C@H]1C#N` [Example 1A, (2S)-1-((2′S)-2′-amino-3′,3′-dimethylbutanoyl)pyrrolidine-2-carbonitrile hydrochloride] was tested, and the “Glycaemia: day of development of significant hyperglycaemia” value ([2]; 10 mg/kg p.o. once daily) was 15 days, the “Insulinaemia: day on which peak insulin level is reached” value ([2]; 10 mg/kg p.o. once daily, obese control peak by day 8) was 11 days and the “Glycaemia: day of development of significant hyperglycaemia” value ([2]; 10 mg/kg p.o. twice daily) was 24 days.
